{
  "source": "PubChem BioAssay (NCI)",
  "experiment_in_all_cases": "NCI tumour cell line growth inhibition, 48 h",
  "key": {"[1]": {"test_system": "SR leukemia"}, "[2]": {"test_system": "SN12C renal"}, "[3]": {"test_system": "RXF 393 renal"}, "[4]": {"test_system": "NCI-H522 lung"}, "[5]": {"test_system": "SNB-75 CNS"}, "[6]": {"test_system": "XF 498 CNS"}, "[7]": {"test_system": "SNB-19 CNS"}, "[8]": {"test_system": "SK-MEL-5 melanoma"}, "[9]": {"test_system": "BT-549 breast"}, "[10]": {"test_system": "DMS 273 small cell lung"}, "[11]": {"test_system": "LXFL 529 NSCLC"}, "[12]": {"test_system": "SW-620 colon"}, "[13]": {"test_system": "SF-295 CNS"}, "[14]": {"test_system": "UO-31 renal"}, "[15]": {"test_system": "SF-539 CNS"}, "[16]": {"test_system": "MCF7 breast"}, "[17]": {"test_system": "RXF-631 renal"}, "[18]": {"test_system": "HCT-15 colon"}, "[19]": {"test_system": "CCRF-CEM leukemia"}, "[20]": {"test_system": "SK-OV-3 ovarian"}, "[21]": {"test_system": "M14 melanoma"}, "[22]": {"test_system": "UACC-62 melanoma"}, "[23]": {"test_system": "TK-10 renal"}, "[24]": {"test_system": "EKVX NSCLC"}, "[25]": {"test_system": "DMS 114 small cell lung"}, "[26]": {"test_system": "DU-145 prostate"}, "[27]": {"test_system": "HOP-62 NSCLC"}, "[28]": {"test_system": "A498 renal"}, "[29]": {"test_system": "MDA-MB-435"}, "[30]": {"test_system": "HT29 colon"}, "[31]": {"test_system": "OVCAR-5 ovarian"}, "[32]": {"test_system": "T-47D breast"}, "[33]": {"test_system": "DLD-1 colon"}, "[34]": {"test_system": "COLO 205 colon"}, "[35]": {"test_system": "NCI-H23 lung"}, "[36]": {"test_system": "U251 CNS"}, "[37]": {"test_system": "786-0 renal"}, "[38]": {"test_system": "CAKI-1 renal"}, "[39]": {"test_system": "LOX IMVI melanoma"}, "[40]": {"test_system": "SK-MEL-28 melanoma"}, "[41]": {"test_system": "K-562 leukemia"}, "[42]": {"test_system": "HS 578T breast"}, "[43]": {"test_system": "RPMI-8226 leukemia"}, "[44]": {"test_system": "NCI/ADR-RES ovarian"}, "[45]": {"test_system": "MALME-3M melanoma"}, "[46]": {"test_system": "MOLT-4 leukemia"}, "[47]": {"test_system": "UACC-257 melanoma"}, "[48]": {"test_system": "M19-MEL melanoma"}, "[49]": {"test_system": "HOP-92 NSCLC"}, "[50]": {"test_system": "HOP-18 NSCLC"}, "[51]": {"test_system": "PC-3 prostate"}, "[52]": {"test_system": "SF-268 CNS"}, "[53]": {"test_system": "HCC-2998 colon"}, "[54]": {"test_system": "MDA-MB-231 breast"}, "[55]": {"test_system": "NCI-H226 lung"}, "[56]": {"test_system": "IGROV1 ovarian"}, "[57]": {"test_system": "OVCAR-3 ovarian"}, "[58]": {"test_system": "ACHN renal"}, "[59]": {"test_system": "OVCAR-4 ovarian"}, "[60]": {"test_system": "KM12 colon"}, "[61]": {"test_system": "KM20L2 colon"}, "[62]": {"test_system": "HCT-116 colon"}, "[63]": {"test_system": "NCI-H460 lung"}, "[64]": {"test_system": "A549 NSCLC"}, "[65]": {"test_system": "HL-60(TB) leukemia"}, "[66]": {"test_system": "SK-MEL-2 melanoma"}, "[67]": {"test_system": "OVCAR-8 ovarian"}},
  "note": "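Exposure lasted 48 hours, with cells grown in 96-well plates and compounds tested at five concentrations. Here, GI50 denotes the concentration required for 50% inhibition of growth. Definition used: TGI = concentration required for complete inhibition of growth.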",
  "data": [
    {"smiles": "CC(=O)C1=C(O)C2(O)C(=O)c3c(c(C)c4ccc(C)c(O)c4c3O)CC2C(N)C1=O", "note": "(stereo unspecified)", "values": [
      {"measurement": "TGI", "setting": "[1]", "result": 4.47, "unit": "µM"},
      {"measurement": "TGI", "setting": "[2]", "result": 9.79, "unit": "µM"},
      {"measurement": "TGI", "setting": "[3]", "result": 20, "unit": "µM"},
      {"measurement": "TGI", "setting": "[4]", "result": "> 29.5", "unit": "µM"},
      {"measurement": "TGI", "setting": "[5]", "result": 16.7, "unit": "µM"},
      {"measurement": "TGI", "setting": "[6]", "result": 5.09, "unit": "µM"},
      {"measurement": "TGI", "setting": "[7]", "result": 23.9, "unit": "µM"},
      {"measurement": "TGI", "setting": "[8]", "result": 3.85, "unit": "µM"},
      {"measurement": "GI50", "setting": "[9]", "result": 0.762, "unit": "µM"},
      {"measurement": "TGI", "setting": "[9]", "result": 13.6, "unit": "µM"},
      {"measurement": "TGI", "setting": "[10]", "result": 5.54, "unit": "µM"},
      {"measurement": "TGI", "setting": "[11]", "result": 10.2, "unit": "µM"},
      {"measurement": "TGI", "setting": "[12]", "result": 23.6, "unit": "µM"},
      {"measurement": "TGI", "setting": "[13]", "result": 5.6, "unit": "µM"},
      {"measurement": "TGI", "setting": "[14]", "result": 11.1, "unit": "µM"},
      {"measurement": "TGI", "setting": "[15]", "result": 14.8, "unit": "µM"},
      {"measurement": "GI50", "setting": "[16]", "result": 2.84, "unit": "µM"},
      {"measurement": "TGI", "setting": "[16]", "result": 18.3, "unit": "µM"},
      {"measurement": "TGI", "setting": "[17]", "result": 11.2, "unit": "µM"},
      {"measurement": "TGI", "setting": "[18]", "result": 9.99, "unit": "µM"},
      {"measurement": "TGI", "setting": "[19]", "result": 18.6, "unit": "µM"},
      {"measurement": "TGI", "setting": "[20]", "result": 12.6, "unit": "µM"},
      {"measurement": "TGI", "setting": "[21]", "result": 23.1, "unit": "µM"},
      {"measurement": "TGI", "setting": "[22]", "result": 5.25, "unit": "µM"},
      {"measurement": "TGI", "setting": "[23]", "result": 8.86, "unit": "µM"},
      {"measurement": "TGI", "setting": "[24]", "result": 12.2, "unit": "µM"},
      {"measurement": "TGI", "setting": "[25]", "result": 7.17, "unit": "µM"},
      {"measurement": "GI50", "setting": "[26]", "result": 2.41, "unit": "µM"},
      {"measurement": "TGI", "setting": "[26]", "result": 14.7, "unit": "µM"},
      {"measurement": "TGI", "setting": "[27]", "result": 10.7, "unit": "µM"},
      {"measurement": "TGI", "setting": "[28]", "result": 8.45, "unit": "µM"},
      {"measurement": "GI50", "setting": "[29]", "result": 1.11, "unit": "µM"},
      {"measurement": "TGI", "setting": "[29]", "result": 4.86, "unit": "µM"},
      {"measurement": "TGI", "setting": "[30]", "result": 12.3, "unit": "µM"},
      {"measurement": "TGI", "setting": "[31]", "result": 14, "unit": "µM"},
      {"measurement": "GI50", "setting": "[32]", "result": 2.33, "unit": "µM"},
      {"measurement": "TGI", "setting": "[32]", "result": 30.5, "unit": "µM"},
      {"measurement": "TGI", "setting": "[33]", "result": 11.7, "unit": "µM"},
      {"measurement": "TGI", "setting": "[34]", "result": 3.34, "unit": "µM"},
      {"measurement": "TGI", "setting": "[35]", "result": 7.14, "unit": "µM"},
      {"measurement": "TGI", "setting": "[36]", "result": 7.82, "unit": "µM"},
      {"measurement": "TGI", "setting": "[37]", "result": 16.8, "unit": "µM"},
      {"measurement": "TGI", "setting": "[38]", "result": 7.99, "unit": "µM"},
      {"measurement": "TGI", "setting": "[39]", "result": 11.4, "unit": "µM"},
      {"measurement": "TGI", "setting": "[40]", "result": 13.3, "unit": "µM"},
      {"measurement": "TGI", "setting": "[41]", "result": 12.2, "unit": "µM"},
      {"measurement": "GI50", "setting": "[42]", "result": 1.99, "unit": "µM"},
      {"measurement": "TGI", "setting": "[42]", "result": 9.48, "unit": "µM"},
      {"measurement": "TGI", "setting": "[43]", "result": 12.8, "unit": "µM"},
      {"measurement": "GI50", "setting": "[44]", "result": 1.89, "unit": "µM"},
      {"measurement": "TGI", "setting": "[44]", "result": 13.7, "unit": "µM"},
      {"measurement": "TGI", "setting": "[45]", "result": 4.74, "unit": "µM"},
      {"measurement": "TGI", "setting": "[46]", "result": 8.86, "unit": "µM"},
      {"measurement": "TGI", "setting": "[47]", "result": 11.9, "unit": "µM"},
      {"measurement": "TGI", "setting": "[48]", "result": 11, "unit": "µM"},
      {"measurement": "TGI", "setting": "[49]", "result": 6.2, "unit": "µM"},
      {"measurement": "TGI", "setting": "[50]", "result": 13.4, "unit": "µM"},
      {"measurement": "GI50", "setting": "[51]", "result": 0.754, "unit": "µM"},
      {"measurement": "TGI", "setting": "[51]", "result": 11.7, "unit": "µM"},
      {"measurement": "TGI", "setting": "[52]", "result": 13.6, "unit": "µM"},
      {"measurement": "TGI", "setting": "[53]", "result": 15, "unit": "µM"},
      {"measurement": "GI50", "setting": "[54]", "result": 0.73, "unit": "µM"},
      {"measurement": "TGI", "setting": "[54]", "result": 4.99, "unit": "µM"},
      {"measurement": "TGI", "setting": "[55]", "result": 8.2, "unit": "µM"},
      {"measurement": "TGI", "setting": "[56]", "result": 13, "unit": "µM"},
      {"measurement": "TGI", "setting": "[57]", "result": 13.2, "unit": "µM"},
      {"measurement": "TGI", "setting": "[58]", "result": 7.19, "unit": "µM"},
      {"measurement": "TGI", "setting": "[59]", "result": 19, "unit": "µM"},
      {"measurement": "TGI", "setting": "[60]", "result": 8.29, "unit": "µM"},
      {"measurement": "TGI", "setting": "[61]", "result": 14.7, "unit": "µM"},
      {"measurement": "TGI", "setting": "[62]", "result": 14, "unit": "µM"},
      {"measurement": "TGI", "setting": "[63]", "result": 9.2, "unit": "µM"},
      {"measurement": "TGI", "setting": "[64]", "result": 11.5, "unit": "µM"},
      {"measurement": "TGI", "setting": "[65]", "result": 5.07, "unit": "µM"},
      {"measurement": "TGI", "setting": "[66]", "result": "> 21", "unit": "µM"},
      {"measurement": "TGI", "setting": "[67]", "result": 10.7, "unit": "µM"}
    ]}
  ]
}
